“Also recorded” adds a separate entry of the source.
Experiments:
ATDC [1] = assay: Western blot analysis of ATDC after miRNA mimic transfection, L3.6PL cells; format: cell-based, human; conditions: 36 h after transfection with miRNA mimics
Procedure: (§1) FIGS. 31A and B are L3.6PL cells, and FIGS. 31 C and D are BXPC3 cells. The lanes in these figures is as follows: 1(a). Lipofectamine2000 only; 2(b). Control miRNA; 3. miR-299-5p; 4. miR-185; 5. miR-522; 6. miR-506; 7. miR-765; 8. miR-362; 9. miR-515-5p; 10. miR-661; 11. miR-525; c. miR-34a; d. miR-34b; e. miR-34c; f. miR-150; g. miR-296; h. miR-500; and i. miR-650.
(§2) For testing the miRNAs for ATDC, Western blot analysis of pancreatic cancer cells transfected was carried out with the miRNAs by Lipofactamine2000. […] They are miR-34a, miR-34c, miR-296, miR-650, miR-299-5p, miR-185, miR-765, miR-522, and miR-362.

ATDC [2] = assay: Western blot analysis of ATDC after miRNA mimic transfection, BXPC-3 cells; format: cell-based, human; conditions: 36 h after transfection with miRNA mimics
Procedure: as §1, §2

ATDC [3] = assay: ATDC localization after nuclear export inhibition, Panc-1 cells; format: cell-based, human; conditions: 1 ng/ml, 6 hours
Procedure: In previous reports, ATDC was described as being predominately cytoplasmic in several cell types (see, e.g., Reymond A, et al., Embo J 2001; 20, 2140-2151; Brzoska P M, et al., Proc. Natl. Acad. Sci. USA 1995; 92, 7824-7828), conflicting with its potential role in the DNA damage response/DNA repair. In localization studies, it was determined that both endogenous ATDC and GFP-tagged ATDC had predominantly cytoplasmic localization, with some staining in the nucleus. To better understand how a protein with predominately cytoplasmic localization might be involved in the DNA response, wild type Panc-1 cells was treated with the nuclear export inhibitor leptomycin B (1 ng/ml) for 6 hours.

ATDC [4] = assay: ATDC gene expression in gastric cancer KATO III cells; format: cell-based; conditions: human gastric cancer KATO III cells
Procedure: Next, the miRNAs regulation of ATDC by qRT-PCR was examined. 24 hours after miRNA mimic transfection of the cancer cells (100 pmol per well in 6-well plates), ATDC mRNA levels were measured by qRT-PCR with TaqMan SYBR Green PCR System (Applied Biosystems). Briefly, total RNA was extracted from the transfected cells using TRIZOL (Invitrogen) according to the manufacturer's instructions. Reverse transcription was performed using a TaqMan Reverse Transcription Kit (Applied Biosystems). For qRT-PCR, 1 μl of gene primers with SYBR Green (Applied Biosystems) in 20 μl of reaction volume was applied. Primers for ATDC: Forward: 5′-[…]-3′ (SEQ ID NO:45), Reverse: 5′-[…]-3′ (SEQ ID NO:46).

Dvl-2 [5] = assay: Western blot after Dvl-2 shRNA transfection, MiaPaCa2 cells; format: cell-based, human; conditions: transient transfection
Procedure: (§3) FIG. 26. The oncogenic effects of ATDC are mediated by Dvl-2. (A. B) The effects of Dvl-2 shRNA 1 or 2 on b-catenin expression is shown in representative Western blots of HEK 293 (A) and MiaPaCa2 cells […] with or without ATDC overexpression. (C, D) TCF reporter activity was assessed in Dvl-2 shRNA 1 or 2-transfected HEK 293 (C) or Mia PaCa2 cells (D) with (+) or without (−) ATDC overexpression. The results from 3 separate experiments, performed in triplicate (*p<0.05 vs empty vector-transfected cells). (E. F) MTS proliferation assays in Dvl-2 shRNA1 or 2-transfected HEK 293 (E) and MiaPaCa2 (F) cells with (+) or without (−) ATDC overexpression (n=3, *p<0.05 vs wild type cells). (G) TCF reporter activity was measured in HEK 293, SW480, DLD-1 and HCT-116 cells with vector (white bars) or ATDC (black bars) transfection using the β-catenin responsive TOPFLASH reporter and the mutant control FOPFLASH reporter. The mean of the TOP/FOP ratio, as compared with the activity, for three independent experiments, performed in triplicate. […] The experiments were repeated three times and the data is expressed as the mean±SE. […] 48 hours after transfection, cell growth rates were assessed. […]

Dvl-2 [6] = assay: Western blot after Dvl-2 shRNA transfection, HEK 293 cells; format: cell-based, human; conditions: transient transfection
Procedure: as §3

miR-362: miRNA mimic (UGAGUGUGGAUCCAAGGUUCCUAA; listed as RNA, chemistry not given here; listed as Homo sapiens)
ATDC protein levels (ATDC [1]): potently reduced | ATDC protein levels (ATDC [2]): potently reduced

miR-522: miRNA mimic (UUGUGAGAUUUCCCUUGGUAAAA; listed as RNA, chemistry not given here; listed as Homo sapiens)
ATDC protein levels (ATDC [1]): potently reduced | ATDC protein levels (ATDC [2]): potently reduced

miR-34c: miRNA mimic (CGUUAGUCGAUUGAUGUGACGGA; listed as RNA, chemistry not given here; listed as Homo sapiens)
ATDC protein levels (ATDC [1]): potently reduced | ATDC protein levels (ATDC [2]): potently reduced

CCC(=C/[C@H](C)C/C=C/C(C)=C/[C@@H](C)C(=O)[C@@H](C)[C@H](O)[C@@H](C)C/C(C)=C/C(=O)O)/C=C/[C@@H]1OC(=O)C=C[C@@H]1C [leptomycin B]
ATDC localization (ATDC [3]): ATDC accumulation in the nucleus | ATDC localization (ATDC [3]; listed as leptomycin): nuclear retention of ATDC

miR-299-5p: miRNA mimic (UACAUACACCCUGCCAUUUGGU; listed as RNA, chemistry not given here; listed as Homo sapiens)
ATDC protein levels (ATDC [1]): potently reduced | ATDC protein levels (ATDC [2]): potently reduced

miR-185: miRNA mimic (CUUGACGGAAAGAGAGGU; listed as RNA, chemistry not given here; listed as Homo sapiens)
ATDC protein levels (ATDC [1]): potently reduced | ATDC protein levels (ATDC [2]): potently reduced

miR-765: miRNA mimic (GUAGUGGAAGGAAGAGGAGGU; listed as RNA, chemistry not given here; listed as Homo sapiens)
ATDC protein levels (ATDC [1]): potently reduced; also recorded: less potent | ATDC protein levels (ATDC [2]): potently reduced

miR-34a: miRNA mimic (UUGUUGGUCGAUUCUGUGACGGU; listed as RNA, chemistry not given here; listed as Homo sapiens)
ATDC gene expression (ATDC [4]): potently down-regulated; also recorded: significantly inhibited | ATDC protein levels (ATDC [1]): potently reduced | ATDC protein levels (ATDC [2]): potently reduced

miR-650: miRNA mimic (CAGGACUCUCGCGACGGAGGA; listed as RNA, chemistry not given here; listed as Homo sapiens)
ATDC protein levels (ATDC [1]): potently reduced; also recorded: less potent | ATDC protein levels (ATDC [2]): potently reduced

B1: Dvl-2 shRNA 1: shRNA to Dvl-2, sense and anti-sense SEQ ID NOs: 7 and 8 (OriGene) (nucleic acid, listed as Homo sapiens)
sense: CACCTGTAGCTGCCTTTGTTACTCTATTTATTTCGAAAAATAAATAGAGTAACAAAGGCAGCTACA
antisense: AAAATGTAGCTGCCTTTGTTACTCTATTTATTTATTCGAAATAAATAGAGTAACAAAGGCAGCTACA
modifications: the letters are possibly those of the target site
levels of Dvl-2 (Dvl-2 [5]): effective | levels of Dvl-2 (Dvl-2 [6]): effective

B2: Dvl-2 shRNA 2: shRNA to Dvl-2, sense and anti-sense SEQ ID NOs: 9 and 10 (OriGene) (nucleic acid, listed as Homo sapiens)
sense: CACCGGACCGCATGTGGCTCAAGATCACCATCCCGAAGGATGGTGATCTTGAGCCACATGCGGTCC
antisense: AAAAGGACCGCAGTGGCTCAAGATCACCATCCTTCGGGATGGTGATCTTGAGCCACATGCGGTCC
modifications: the letters are possibly those of the target site
levels of Dvl-2 (Dvl-2 [5]): effective | levels of Dvl-2 (Dvl-2 [6]): effective

Reference: patent publication US8088749B2, “Compositions and methods for treating cancer” (The Regents of the University of Michigan, priority 2007, dated 2012)
